Test results: the NIST ThermoML archive (doi:10.1021/je400861g)
± gives the expanded uncertainty stated by the source.

Assay: mn = molality of the nth substance listed, in mol/kg
Conditions: 298.15 K; for surface tension liquid-gas: Ring tensiometer; for electrical conductivity: 101 kPa, Liquid, DDS-11A conductometer

CCCCCCCCCCCC[n+]1ccn(C)c1.F[B-](F)(F)F [1-dodecyl-3-methylimidazolium tetrafluoroborate] + O
Conditions	electrical conductivity [S/m]	surface tension liquid-gas [mN/m]
m1 = 0.0003	0.0324 ± 0.002	56.4 ± 0.9
m1 = 0.0006	0.0346 ± 0.002	50.4 ± 0.9
m1 = 0.001	0.0379 ± 0.002	43.1 ± 0.8
m1 = 0.0018	0.0455 ± 0.002	34.3 ± 0.7
m1 = 0.003	0.0553 ± 0.002	29.6 ± 0.7
m1 = 0.006	0.0629 ± 0.002	28.2 ± 0.7
m1 = 0.008	0.064 ± 0.002	28.3 ± 0.7
m1 = 0.01	0.0653 ± 0.002	28.2 ± 0.7
m1 = 0.018	0.0712 ± 0.002	28.3 ± 0.7
m1 = 0.03	0.0809 ± 0.002	28 ± 0.7
m1 = 0.04	0.091 ± 0.002	–
m1 = 0.06	0.11 ± 0.002	27.7 ± 0.7

CCCCCCCCCCCCCCCCn1cc[n+](C)c1.F[B-](F)(F)F [1-hexadecyl-3-methylimidazolium tetrafluoroborate] + O
Conditions	electrical conductivity [S/m]	surface tension liquid-gas [mN/m]
m1 = 3e-06	0.0022 ± 0.002	–
m1 = 5e-06	0.0022 ± 0.0022	–
m1 = 7e-06	0.0024 ± 0.002	–
m1 = 1e-05	–	52.9 ± 2.2
m1 = 2e-05	–	47.9 ± 2
m1 = 3e-05	–	43.8 ± 1.5
m1 = 5e-05	0.007 ± 0.0021	38.4 ± 1.2
m1 = 7e-05	0.0103 ± 0.0021	34.9 ± 0.8
m1 = 0.0001	0.0142 ± 0.002	36.7 ± 0.8
m1 = 0.0002	0.0203 ± 0.002	37 ± 0.8
m1 = 0.0003	0.0265 ± 0.002	36.4 ± 0.8
m1 = 0.0005	0.0372 ± 0.002	35.2 ± 0.7
m1 = 0.0007	0.0462 ± 0.002	35.2 ± 0.7
m1 = 0.001	0.0593 ± 0.002	–

CCCCCCCCCCCCCCn1cc[n+](C)c1.F[B-](F)(F)F [3-methyl-1-tetradecyl-1H-imidazol-3-ium tetrafluoroborate] + O
Conditions	electrical conductivity [S/m]	surface tension liquid-gas [mN/m]
m1 = 0.0001	–	47.9 ± 0.9
m1 = 0.00018	–	41.9 ± 0.8
m1 = 0.0003	0.032 ± 0.002	39 ± 0.8
m1 = 0.0006	0.0344 ± 0.002	33.6 ± 0.7
m1 = 0.001	0.036 ± 0.002	29.9 ± 0.7
m1 = 0.0018	0.0368 ± 0.002	28.4 ± 0.7
m1 = 0.003	0.0376 ± 0.002	27.8 ± 0.7
m1 = 0.006	0.0393 ± 0.002	27.6 ± 0.7
m1 = 0.01	0.0423 ± 0.002	27.3 ± 0.7
m1 = 0.018	0.0487 ± 0.002	27 ± 0.7
m1 = 0.03	0.0543 ± 0.002	–
m1 = 0.04	0.0633 ± 0.002	–
m1 = 0.06	0.0732 ± 0.002	–
